US20030086902A1, “Cytokine-like peptide” (priority 1999, published 2003)

Experiments:
Type in all cases: cell-based
sindbis viruses [1] = assay: antiviral bioassay using FL cells and sindbis viruses
Method: The antiviral activity of the resultant synthetic peptides was inspected by a bioassay method using human amnion-derived FL cells and sindbis viruses (Armstrong, J. A., Methods in Enzymology, 78, 381-387 (1981)). FL cells were inoculated on wells of a 96-well microtiter plate (IWAKI GLASS CO., LTD.) at 3.5×10^5 cells/well and cultured for 24 hours. Thereafter, each peptide was added at the concentration shown in FIG. 3 (0.9 μM to 120 μM) and cultured for 24 hours. […] Thereafter, sindbis viruses were added to each well and cultured for 15 hours. The culture solution was discarded, the plate was immersed in a crystal violet solution containing formalin for about 15 minutes, and living cells were immobilized and stained.
In order to identify an amino acid residue that plays an important role in expressing the antiviral activity of peptide SYR6, 12 types of varied peptides were prepared through chemical synthesis in which each of all the amino acid residues other than alanine of SYR6 were respectively substituted with alanine (peptides were successively designated as N1 to N15 in order from the N-terminus side in accordance with the number of the amino acid residue converted into alanine. Since the fourth, eighth, and ninth residues are alanine, excluding these, a total of 12 types of peptides was prepared). The sequences are shown in the lower part of FIG. 7. […]

[2] = system: vesicular stomatitis viruses (VSV); conditions: human amnion-derived FL cells
sindbis viruses [3] = assay: antiviral activity in the presence of interferon neutralizing antibodies (FL cells, sindbis viruses); conditions: MIF-1 (anti-IFN α), YSB-1 (anti-IFN β), anti-IFN γ antibodies added
Method: In order to deny the possibility that the antiviral activity of peptide SYR6 is attained by inducing endogenous production of interferon, the antiviral activity in the presence of various interferon neutralizing antibodies was examined. FL cells were inoculated on wells of a 96-well microtiter plate (IWAKI GLASS CO., LTD.) at 3.5×10^5 cells/well and cultured for 24 hours. Thereafter, peptide SYR6 was added at the concentration shown in FIG. 5 (0.9 μM to 120 μM) and cultured for 24 hours. […] Thereafter, sindbis viruses were added to each well and cultured for 15 hours. In this case also, various neutralizing antibodies were added and cultured under the same conditions as described above. The culture solution was discarded, the plate was immersed in a crystal violet solution containing formalin for about 15 minutes, and living cells were immobilized and stained. […] Therefore, the possibility that the antiviral activity of peptide SYR6 was attained by inducing the production of endogenous interferon was denied.

## SYR6: synthetic 15-residue peptide with the sequence of phage 6, SEQ ID NO: 1 (SVQARWEAAFDLDLY; Designed peptide based on the DNA sequence of phage binding to monoclonal antibody YSB-2)
Sindbis viruses [1]; FL cells, SYR6 HPLC peaks measured separately
  antiviral activity of the synthetic peptides (FIG. 3): activity was recognized
Sindbis viruses [1]; human amnion-derived FL cells, peptide 0.9 μM to 120 μM for 24 hours
  concentration at which the peptide began to exhibit antiviral activity: 30 µM
[2]
  concentration at which the peptide began to exhibit antiviral activity: 30 µM
Sindbis viruses [3]
  antiviral activity in the presence of interferon neutralizing antibodies: not affected at all
